In PubChem BioAssay (NCI):
Values joined by “and” are separate entries in the source; they are usually repeats but may differ in a detail not shown here. Equal values may be shown once.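 Compound exposure: 48 hours, 5 concentrations, 96-well plates. Abbreviation: GI50, concentration required for 50% inhibition of growth. TGI: concentration producing complete growth inhibition.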 Where a SMILES comes first, the peptide text is derived from it. [ ]: non-standard residue; d: D form. The star is where a group is joined. Bn2Val = CC(C)[C@@H](C(=O)*)N(Cc1ccccc1)Cc1ccccc1; NH(3,4-diMeO-benzyl) = COc1ccc(CN*)cc1OC; NMeV = CN[C@H](C(=O)O)C(C)C; dNMeA = CN[C@H](C)C(=O)O

Legend:
Assay in all cases: NCI anticancer screen, dose series, 48 h
[1] = tested on: DU-145 prostate
[2] = tested on: PC-3 prostate
[3] = tested on: BT-549 breast
[4] = tested on: NCI/ADR-RES ovarian
[5] = tested on: MDA-MB-435
[6] = tested on: HS 578T breast
[7] = tested on: KM20L2 colon
[8] = tested on: M19-MEL melanoma
[9] = tested on: DMS 273 small cell lung

SMILES | GI50 [1] [µM] | TGI [1] | GI50 [2] [µM] | TGI [2] | GI50 [3] [µM] | TGI [3] | GI50 [4] [µM] | TGI [4] | GI50 [5] [µM] | TGI [5] | GI50 [6] [µM] | TGI [6] [µM] | TGI [7] [µM] | TGI [8] [µM] | TGI [9] [µM] | GI50 [7] [µM]
CN=C1NC(=O)/C(=C/c2ccc3ncccc3c2)S1 | 5.78 | > 25 µM | 13.8 | > 25 µM | 6.12 | > 23 µM | 13.9 | > 25 µM | 4.06 | > 25 µM | 6.24 | > 21 |  |  |  | 
CCOC(=O)c1cc(-c2ccc([N+](=O)[O-])cc2)n(-c2ccc(C(=O)O)c(O)c2)c1C | 4.55 | 17.5 µM | 2.96 | 18.8 µM | 3.83 | 18.1 µM | 3.8 | 38.6 µM | 3.62 | 14.6 µM | 3.64 | 17 |  |  |  | 
NC1(CCCCCCCCCCC(=O)O)CNCCNCCNCCNC1 |  |  |  |  |  |  |  |  |  |  |  |  | > 100 | > 100 |  | 
Cc1c(Cl)cccc1Nc1ncccc1C(=O)O | > 100 | > 100 µM | 52.3 | > 100 µM | 61.2 | > 100 µM | 78.7 | > 100 µM | 82.9 | > 100 µM | 63.1 | > 100 |  |  |  | 
N#Cc1cnn2ccn(C3OC(COC(=O)c4ccccc4)C(OC(=O)c4ccccc4)C3OC(=O)c3ccccc3)c12 (configuration not stated) |  | > 21.5 µM |  | 21.5 µM |  | > 100 µM |  | > 21.5 µM |  | > 21.5 µM |  | 21.5 |  |  |  | 
NNC(=O)c1cnn(-c2ccnc3c(C(F)(F)F)cccc23)c1N | > 100 | > 100 µM | > 100 | > 100 µM | > 100 | > 100 µM | > 100 | > 100 µM | > 100 | > 100 µM | > 100 | > 100 |  |  |  | 
O=C1CSC(N2CCN(c3cccc(Cl)c3)CC2)=N1 | > 100 | > 100 µM | > 100 | > 100 µM | > 100 | > 100 µM | > 100 | > 100 µM | > 100 | > 100 µM | > 100 | > 100 |  |  |  | 
CC1=C(CCCOC(=O)NCCCl)C2=C(C)C3(CC3)[C@@](C)(O)C(=O)C2=C1 | 1.14 | > 100 µM | 4.01 | > 100 µM | 2.08 | 6.66 µM | 2.95 | > 100 µM | 5.07 | 99.4 µM | 8.31 | 87.4 |  |  |  | 
COc1ccc(CNC(=O)COc2ccc(/C=N/Nc3nc4ccccc4s3)cc2)cc1 | 3.8 | > 100 µM | 3.35 | > 100 µM | 1.61 | 3.41 µM | 3.12 | 19.4 µM | 3.47 | > 100 µM | 2.24 | 19.1 |  |  |  | 
O=S(=O)(O)C(O)/C=C/c1ccccc1 (configuration not stated) |  |  |  |  |  |  |  |  |  |  |  |  | > 100 | > 100 | > 100 | 
O=C(O)Cc1c[nH]c2ccc(F)cc12 |  | > 100 µM |  | > 100 µM |  | > 100 µM |  | > 100 µM |  | > 100 µM |  |  |  |  |  | 
COc1cc2c(NCCCCCCO[N+](=O)[O-])ncnc2c(OC)c1OC |  | 72.2 µM |  | 63.4 µM |  | 56 µM |  | 51.3 µM |  | 42.3 µM |  | > 87.4 |  |  |  | 
O=[n+]1c(CBr)c(CBr)n([O-])c2ccccc21 | 5.8 | 18.4 µM | 13.4 | 31.1 µM | 1.85 | 5.13 µM | 14.5 | 33.7 µM | 12 | 25 µM | 17 | 45.3 |  |  |  | 
CCOc1ccc2nc(NC(=O)/C(CC(=O)CC(C3=C(O)c4ccccc4CC3=O)c3ccccc3)=N\O)sc2c1 (configuration not stated) |  | > 100 µM |  | > 100 µM |  | > 100 µM |  | > 100 µM |  | > 100 µM |  | > 100 |  |  |  | 
COc1ccc(CN2CCCC(C(=O)c3ccc(C(F)(F)F)cc3)C2)c(O)c1 (configuration not stated) | 53.9 | > 100 µM | 26.3 | > 100 µM | 24.3 | 71.9 µM | 26.7 | > 100 µM | 23.4 | 83.3 µM | 24.7 | > 100 |  |  |  | 
CNC(=O)c1cc(Oc2ccc3c(c2)sc2nc(-c4ccc(N)cc4)cn23)ccn1 | 0.344 | > 100 µM | 0.324 | > 100 µM | 0.5 | 51.6 µM | 0.211 | > 100 µM |  |  | 0.224 | > 100 |  |  |  | 
O=C(/C=C(\[O-])c1ccccc1)CCCCCCC(=O)/C=C(\[O-])c1ccccc1.O=C(/C=C(\[O-])c1ccccc1)CCCCCCC(=O)/C=C(\[O-])c1ccccc1.O=C(/C=C(\[O-])c1ccccc1)CCCCCCC(=O)/C=C(\[O-])c1ccccc1.[La+3].[La+3] |  |  |  |  |  |  |  |  |  |  |  |  | > 50 |  |  | > 50
CC[n+]1ccc2c(c1)C(=O)c1nccc3c1c-2nc1ccccc13 | 1.03 | 4.31 µM | 1.81 | 16.2 µM | 0.832 | 3.12 µM | > 27.7 | > 33.3 µM | 2.34 | 7.24 µM | 0.955 | > 10.1 |  |  |  | 
CCCNC(=O)OCc1c(COC(=O)NCCC)c(-c2ccc(Cl)c(Cl)c2)n2c1CCC2 |  | > 100 µM |  | 28.4 µM |  | 15.9 µM |  | 17.4 µM |  | 29.8 µM |  | 26.2 |  |  |  | 
CCOC(=O)c1c(N)n(-c2ccccc2)c(=S)n(-c2ccccc2)c1=O |  | > 100 µM |  |  |  | > 100 µM |  |  |  | > 100 µM |  | > 100 |  |  |  | 
O=C1c2ccccc2C(=O)c2c1ccc1[nH]c(CCl)nc21 | 4.27 | 14.5 µM | 2.23 | 7.01 µM | 3.52 | 12.7 µM | 2.76 | 10.4 µM | 3.37 | 11.8 µM | 2.94 | 14.7 |  |  |  | 
COc1ccc(CNC(=O)[C@@H](C)N(C)C(=O)[C@@H]2CCCN2C(=O)[C@H](C(C)C)N(C)C(=O)[C@@H](NC(=O)[C@H](C(C)C)N(Cc2ccccc2)Cc2ccccc2)C(C)C)cc1OC (Bn2Val-V[NMeV]P[dNMeA]-{NH(3,4-diMeO-benzyl)}) |  | 50 µM and 42.3 µM | 5.61 | 26 µM and 24.5 µM | 9.43 | 15.1 µM and 27.1 µM | 6.35 | 32.9 µM and 40.1 µM | 11.1 | 19.7 µM and 24.1 µM | 19.5 |  |  |  |  | 
S=C1NCCN1C1=Nc2ccccc2CO1 | > 100 | > 100 µM | > 100 | > 100 µM | > 100 | > 100 µM | > 100 | > 100 µM | > 100 | > 100 µM |  |  |  |  |  | 
